Laboratory results published in US11299482B2, “Salt and crystal form of modified andrographolide compound and preparation method thereof” (HEILONGJIANG ZHENBAODAO PHARMACEUTICAL CO, LTD, priority 2017, dated 2022).
One block for each compound: values may come before it.

Experiments:
[1] = test system: IL-6 release from mouse spleen cells; test: LPS-induced release of IL-6 from mouse spleen cells (CBA); format: cell-based; details: 24 hours, read-out: Inhibition rate, IL-6 (Th1)
Description: (§1) Evaluate the inhibitory effect of the compound on LPS-induced release of cytokines involved in the Th1 pathway such as TNF-α and IL-6 from mouse spleen cells by measuring the levels of the cytokines involved in the Th1 pathway such as TNF-α and IL-6 in the culture supernatant of mouse spleen cells. Cells: spleen cells isolated from the spleens of normal C57BL/6 mice 1) The mice were sacrificed under aseptic conditions, and the spleens were collected and ground in a filter having a pore size of 70 μm. The obtained cell suspension was collected. 6) The cells were added to a 96-well plate (100 μL/well, 1×10^5 cells/well); LPS was formulated with culture medium into a 4 μg/ml solution, and then the solution was added to the cell culture well at 50 μl per well. The compound was dissolved in DMSO to give a solution of 100 mM, and then the solution was diluted with DMSO to obtain 3 gradients, which were 30 mM, 10 mM, and 3 mM, respectively. For each gradient, 4 μl of the solution was added to 1 ml of culture medium to form a mixture with a concentration of 120 μM, 40 μM, or 12 μM, respectively. 50 μl of the mixture was added to a corresponding well to a final concentration of 30 μM, 10 μM, or 3 μM, respectively. […] Then, the supernatant was collected, and the levels of TNF-α and IL-6 therein were detected by CBA.

[2] = test system: TGF-β release from mouse peritoneal macrophages; test: Release of TGF-β from mouse peritoneal macrophages (ELISA); format: cell-based; details: Peritoneal macrophage, 24 hours, read-out: Inhibition rate, fibrosis factor TGF-β
Protocol: Evaluate the inhibitory effect of the compound on the release of TGF-β from mouse peritoneal macrophages by measuring the level of TGF-β in the culture supernatant of mouse peritoneal macrophages. Cells: Macrophages collected by peritoneal lavage of normal Balb/c mice 7) The macrophages were added to a 48-well plate at 250 μL/well, i.e. 4×10^5 cells/well; 2) A stimulating solution containing TNFα and IL-13 both at a concentration of 80 ng/mL was prepared with serum-free medium, and added to the wells plated with cells at 125 μL/well. Three wells were left without the addition of the stimulating solution and used as a blank control; The compound was dissolved in DMSO to give a solution of 100 mM, and then the solution was diluted with DMSO to obtain 3 gradients, which were 30 mM, 10 mM, and 3 mM, respectively. For each gradient, 4 μl of the solution was added to 1 ml of culture medium to form a mixture with a concentration of 120 μM, 40 μM, or 12 μM, respectively. 125 μl of the mixture was added to a corresponding well to a final concentration of 30 μM, 10 μM, or 3 μM, respectively. Dexamethasone was added as a positive drug to a separate well containing cells at a final concentration of 100 nM. […] Then, the supernatant was collected, and the level of TGF-β therein was detected by ELISA.

[3] = test system: IL-2 release from mouse spleen cells; test: Release of IL-2 from anti-CD3 stimulated mouse spleen cells (CBA); format: cell-based; details: anti-CD3, 24 hours, read-out: Inhibition rate, IL-2 (Th1)
Protocol: (§2) Evaluate the inhibitory effect of the compound on the release of cytokines involved in the Th1 pathway such as IFN-γ and IL-2 from mouse spleen cells by measuring the levels of cytokines involved in the Th1 pathway such as IFN-γ and IL-2 in the culture supernatant of mouse spleen cells. Cells: spleen cells isolated from the spleens of normal C57BL/6 mice The anti-mouse CD3 antibody diluted to 5 μg/mL with DPBS was added to a 96-well plate at 100 μL/well. The culture plate was allowed to stand at 4° C. overnight; 1) The mice were sacrificed under aseptic conditions, and the spleens were collected and ground in a filter having a pore size of 70 μm. The obtained cell suspension was collected. 2) The cells were added to the wells coated with the anti-mouse CD3 antibody at 50 μL/well, i.e. 1×10^5 cells/well; and meanwhile, the cells were added to un-coated wells in the same amount, as a negative control; The compound was dissolved in DMSO to give a solution of 100 mM, and then the solution was diluted with DMSO to obtain 3 gradients, which were 30 mM, 10 mM, and 3 mM, respectively. For each gradient, 4 μl of the solution was added to 1 ml of culture medium to form a mixture with a concentration of 120 μM, 40 μM, or 12 μM, respectively. […] Then, the supernatant was collected, and the levels of IFN-γ and IL-2 therein were detected by CBA.

[4] = Study on polymorphism of the compound of Formula (II) (stirring in solvent, XRPD); format: physicochemical; details: stirred at 40° C. for 2 days in the dark
Protocol: The compound of Formula (II) was dissolved in a corresponding solvent and stirred at 40° C. for 2 days in the dark. The solution was then centrifuged to obtain a precipitate which was dried and subjected to XRPD detection.

[5] = test system: TNF-α release from mouse spleen cells; test: LPS-induced release of TNF-α from mouse spleen cells (CBA); format: cell-based; details: 24 hours, read-out: Inhibition rate, TNF-α (Th1)
Description: as §1

[6] = test system: IFN-γ release from mouse spleen cells; test: Release of IFN-γ from anti-CD3 stimulated mouse spleen cells (CBA); format: cell-based; details: anti-CD3, 24 hours, read-out: Inhibition rate, IFN-γ (Th1)
Protocol: as §2

[7] = test system: left unilateral pulmonary fibrosis; test: SD rat model of left unilateral pulmonary fibrosis; format: in vivo
[8] = test system: IL-13 release from mouse spleen cells; test: Release of IL-13 (Th2 pathway) from mouse spleen CD4+ T cells (CBA); format: cell-based; details: Th2 induction, 72 hours, read-out: Inhibition rate, IL-13 (Th2)
Protocol: Evaluate the inhibitory effect of the compound on LPS-induced release of cytokines involved in the Th2 pathway such as IL-13 from mouse spleen cells by measuring the levels of cytokines involved in the Th2 pathway such as IL-13 in the culture supernatant of mouse spleen cells. Cells: CD4+ cells isolated and sorted from the spleens of normal C57BL/6 mice The anti-mouse CD3 antibody diluted to 5 μg/mL with DPBS was added to a 96-well plate at 100 μL/well. The culture plate was allowed to stand at 4° C. overnight; 6) CD4+ T cells were isolated by using the Mouse CD4+ T Cell Isolation Kit, and the isolated cells were adjusted to a concentration of […]; 8) The isolated CD4+ T cells were added to the wells coated with the anti-CD3 antibody at 50 μL/well, i.e. 1×10^5 cells/well; and meanwhile, the CD4+ T cells were added to un-coated wells in the same amount, as a negative control; The mouse anti-IFNγ antibody and anti-IL-12 antibody were simultaneously added to the culture medium both at a concentration of 40 μg/mL, and mouse IL-4 was added thereto at a concentration of 40 ng/mL. An induction solution was prepared and added to the wells that had been plated with cells and coated with anti-CD3 antibody at 50 μL/well. […] Then, the supernatant was collected, and the level of IL-13 therein was detected by CBA.

[9] = test system: IL-6 release from THP-1 cells; test: LPS-induced release of IL-6 from THP-1 cells (CBA); format: cell-based; details: Homo sapiens, LPS-stimulated THP-1 cells, 24 hours, read-out: Inhibition rate @10 uM (IL-6)
Protocol: Evaluate the inhibitory effect of the compound on LPS-induced release of IL-6 from THP-1 cells by measuring the level of IL-6 in the cell culture supernatant.
Cell line: THP-1 cell line
4) THP-1 cells were diluted with culture medium to 5×10^5 cells/mL and the diluted cells were added to a 96-well plate (100 μl/well, […]);
1) The compound was dissolved in DMSO to give a solution of 30 mM, and then the solution was 3-fold diluted with DMSO into 4 gradients, which were 30 mM, 10 mM, 3 mM, and 1 mM, respectively. For each gradient, 4 μl of the solution was added to 1 ml of culture medium to form a mixture with a concentration of 120 uM, 40 uM, 12 uM, or 4 uM, respectively. Then, 50 ul of the mixture was added to a well containing cells to a final concentration of 30 uM, 10 uM, 3 uM, or 1 uM, respectively. Dexamethasone was added as a positive drug to a separate well containing cells at a final concentration of 100 nM.
1 mg/ml of a LPS solution was diluted to 800 ng/ml with culture medium, and the diluted solution was added to the cell culture well at 50 ul per well.
The cell culture plate was placed in a 37° C. incubator and incubated for 24 hours. Then, the supernatant was collected, and the level of IL-6 therein was detected by CBA.

[10] = Solid stability test of Crystal Form A under high temperature and high humidity conditions; format: physicochemical
Protocol: The vial was sealed with aluminum-foil paper which was punched to generate some small holes to ensure that the sample could fully contact with the ambient air. The vial was placed in a chamber with a constant temperature and humidity of 40° C. and 75%. Samples were placed under the above conditions and tested on day 5 and day 10. The test results were compared with the initial test results as measured on day 0.

[11] = Solid physical stability test of Crystal Form A under different temperature, humidity and light conditions; format: physicochemical; details: Day 10
Protocol: The vial was sealed with aluminum-foil paper which was punched to generate some small holes to ensure that the sample could fully contact with the ambient air. The 4 samples as prepared were placed under conditions of 25° C./92.5% relative humidity, 60° C., 40° C./75%, and light. The physical stability of the samples on day 10 was examined. […] On day 10, all samples were taken and returned to room temperature. The appearance change of the samples was observed, and the crystal form of the samples was examined by XRPD.

[12] = 40° C. and 75% humidity, open, day 5
[13] = 40° C. and 75% humidity, open, day 10
[14] = 25° C./92.5% relative humidity (open)
[15] = 40° C./75% relative humidity (open)
[16] = stored at −20° C. in a confined space (control sample)

- Crystal form ([4]; Ethanol): Crystal Form A
- Crystal form ([4]; Methanol): Crystal Form A
SMILES: C=C1CCC2[C@]3(C)CO[C@@H](C4CCCC4)O[C@@H]3CC[C@@]2(C)[C@@H]1CCOC1CCN(C)CC1.O=C(O)CC(O)(CC(=O)O)C(=O)O (stereo in doubt) [compound of Formula (II)]
- inhibition at 10 µM [1]: 48%
- inhibition at 10 µM [2]: 51%
- inhibition at 10 µM [3]: 78.2%
- inhibition at 30 µM [5]: 40.3%
- inhibition at 10 µM [6]: 85.3%
- Inhibitory effect on IPF [7]: significant inhibitory effect
- inhibition at 10 µM [8]: 99.9%

SMILES: C=C1CCC2[C@]3(C)CO[C@@H](C4CCCC4)O[C@@H]3CC[C@@]2(C)[C@@H]1CCOC1CCN(C)CC1 (some centres unmarked) [Compound h]
- inhibition at 10 µM [9]: > 60%

- Appearance [10, 12]: Off-white powder
- Crystal form [10, 12]: Crystal Form A
- Purity (%) [10, 12]: 98.37%
- Total impurities (%) [10, 12]: 1.61%
- Appearance [10, 13]: Off-white powder
- Crystal form [10, 13]: Crystal Form A
- Purity (%) [10, 13]: 98.45%
- Total impurities (%) [10, 13]: 1.55%
- Appearance ([10]; day 0 (initial)): Off-white powder
- Crystal form ([10]; day 0 (initial)): Crystal Form A
- Purity (%) ([10]; day 0 (initial)): 98.51%
- Total impurities (%) ([10]; day 0 (initial)): 1.49%
- Characters [11, 14]: Off-white powder
- Crystal form [11, 14]: Crystal Form A
- Characters [11, 15]: Off-white powder
- Crystal form [11, 15]: Crystal Form A
- Characters ([11]; 60° C. (open)): Off-white powder
- Crystal form ([11]; 60° C. (open)): Crystal Form A
- Characters ([11]; light): Off-white powder
- Crystal form ([11]; light): Crystal Form A
- Characters [11, 16]: Off-white powder
- Crystal form [11, 16]: Crystal Form A
SMILES: C=C1CCC2[C@]3(C)CO[C@@H](C4CCCC4)O[C@@H]3CC[C@@]2(C)[C@@H]1CCOC1CCN(C)CC1.O=C(O)CC(O)(CC(=O)O)C(=O)O (some centres unmarked) [Crystal Form A]
